Laboratory results: PMC7810988, “Inositol pyrophosphates promote the interaction of SPX domains with the coiled-coil motif of PHR transcription factors to regulate plant phosphate homeostasis” (Nature Communications, 2021)

Tests used:
Format in all cases: binding
OsSPX4–OsPHR2 = molecular target: T1, OsSPX4–OsPHR2 (Oryza sativa, UniProt Q10B79); assay: isothermal titration calorimetry
T1 construct: gene SPX4; OsSPX4 1-321 (cloning sentence prints OsSPX2 1-321, purification OsSPX4 1-321; His-Strep-Sumo tag cleaved) with full-length OsPHR2 1-426 (His-Strep-GB1 tag, TEV cleaved); E. coli; with Protein PHOSPHATE STARVATION RESPONSE 2

AtPHR1^280–360 [1] = molecular target: T2, AtPHR1^280–360 (Arabidopsis thaliana, UniProt Q94CL7, K325A/H328A/R335A); assay: […] TROSY NMR titration; conditions: 25 mM HEPES pH 7.0, 200 mM NaCl, 0.5 mM TCEP, 30 °C
T2 construct: gene PHR1; coiled-coil domain fragment, residues 280-360, 6xHis tag cleaved by TEV, 15N,2H-labeled, E. coli

AtPHR1^280–360 [2] = molecular target: T3, AtPHR1^280–360 (Arabidopsis thaliana, UniProt Q94CL7); assay: […] TROSY NMR titration; conditions: 25 mM HEPES pH 7.0, 200 mM NaCl, 0.5 mM TCEP, 30 °C
T3 construct: gene PHR1; coiled-coil domain fragment, residues 280-360, 6xHis tag cleaved by TEV, 15N,2H-labeled, E. coli
T3 sequence (Q94CL7 280-360): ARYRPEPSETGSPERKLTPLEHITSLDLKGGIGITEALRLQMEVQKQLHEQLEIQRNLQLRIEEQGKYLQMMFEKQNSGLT

T1 sequence (Q10B79 whole entry): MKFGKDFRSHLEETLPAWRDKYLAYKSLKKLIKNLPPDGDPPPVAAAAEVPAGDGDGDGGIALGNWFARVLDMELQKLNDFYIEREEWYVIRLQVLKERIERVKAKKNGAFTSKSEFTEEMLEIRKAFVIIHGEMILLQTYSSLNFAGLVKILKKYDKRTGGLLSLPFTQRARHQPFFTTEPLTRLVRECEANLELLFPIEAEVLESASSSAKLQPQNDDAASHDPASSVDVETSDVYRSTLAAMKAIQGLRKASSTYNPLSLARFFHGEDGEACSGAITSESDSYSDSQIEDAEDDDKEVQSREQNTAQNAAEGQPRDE
T1 sequence (Q6Z156 whole entry partner): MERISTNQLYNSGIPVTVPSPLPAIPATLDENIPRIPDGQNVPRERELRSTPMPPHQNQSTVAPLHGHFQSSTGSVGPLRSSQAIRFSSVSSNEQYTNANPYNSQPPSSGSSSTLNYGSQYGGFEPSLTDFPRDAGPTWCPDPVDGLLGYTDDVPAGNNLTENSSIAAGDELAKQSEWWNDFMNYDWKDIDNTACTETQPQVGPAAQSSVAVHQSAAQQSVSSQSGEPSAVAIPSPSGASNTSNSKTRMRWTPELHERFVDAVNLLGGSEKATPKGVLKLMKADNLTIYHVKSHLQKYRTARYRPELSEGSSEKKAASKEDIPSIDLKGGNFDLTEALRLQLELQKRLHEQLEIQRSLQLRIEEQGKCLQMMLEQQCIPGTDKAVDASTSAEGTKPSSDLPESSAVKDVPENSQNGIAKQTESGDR
T2 sequence (Q94CL7 280-360 K325A/H328A/R335A): as the sequence (Q94CL7 280-360) above, with K46A, H49A, R56A counted along it

Row | Compound | Kd (OsSPX4–OsPHR2) [µM] | KD (AtPHR1^280–360 [1]) | KD (AtPHR1^280–360 [2])
1 | O=P(O)(O)O[C@H]1[C@@H](OP(=O)(O)O)[C@H](OP(=O)(O)O)[C@@H](OP(=O)(O)OP(=O)(O)O)[C@H](OP(=O)(O)O)[C@H]1OP(=O)(O)O [InsP7] | ~7 |  | 
2 | O=P(O)(O)O[C@@H]1[C@@H](OP(=O)(O)O)[C@H](OP(=O)(O)OP(=O)(O)O)[C@@H](OP(=O)(O)O)[C@H](OP(=O)(O)OP(=O)(O)O)[C@@H]1OP(=O)(O)O [InsP8] | ~3 | repeated the same set of experiments using the AtPHR1^KHR/A mutant protein | The derived dissociation constant is in the millimolar range and saturation could not be reached
